PubChem BioAssay AID2060605 (Molecular Pharmacology Branch, DTP, NCI, 2025)

Tested on: 947758-054-R-J2-PDC spheroid growth, percent test/control
Assay: Anticancer human tumor 947758-054-R-J2-PDC patient-derived colon adenocarcinoma cell line growth inhibition [CLK]
Details: spheroids with HUVEC and MSC; for IC50: curve of first compound; for viability, T/C: stronger effect = lower value; active = viability on the fitted dose curve at most 10% of control; inactive = the rest
Method in brief: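 Multi-cell-type spheroids combined patient-derived tumor cells with HUVEC endothelial cells and human mesenchymal stem cells. Paired agents were dosed in half-log steps down from about clinical Cmax, or from 10 microM where Cmax was unknown.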
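Also: spheroids exposed to compounds for one week before readout.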
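For viability, T/C in this document: 100% = DMSO vehicle control wells.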

C=CC(=O)Nc1cc(Nc2nccc(-c3cn(C)c4ccccc34)n2)c(OC)cc1N(C)CCN(C)C + CNC(=O)c1ccc(Nc2nc(OC3CCCC3)c3c(-c4ccc5nc(C)oc5c4)c[nH]c3n2)c(OC)c1
> 300 nM: IC50 (second compound 0.0316 µM) | IC50 (second compound 0.1 µM)
251 nM: IC50 (second compound 0.316 µM)
< 0.949 nM: IC50 (second compound 3.16 µM) | IC50 (second compound 10 µM)
122 nM: IC50 (second compound 1 µM)
inactive: viability, T/C (second compound 0.0316 µM, first compound 0.000949 µM) 90% | viability, T/C (second compound 0.0316 µM, first compound 0.003 µM) 78.9% | viability, T/C (second compound 0.0316 µM, first compound 0.00949 µM) 80.4% | viability, T/C (second compound 0.0316 µM, first compound 0.03 µM) 94.6% | viability, T/C (second compound 0.0316 µM, first compound 0.0949 µM) 86.2% | viability, T/C (second compound 0.0316 µM, first compound 0.3 µM) 64% | viability, T/C (second compound 0.1 µM, first compound 0.000949 µM) 102% | viability, T/C (second compound 0.1 µM, first compound 0.003 µM) 94.9% | viability, T/C (second compound 0.1 µM, first compound 0.00949 µM) 83.7% | viability, T/C (second compound 0.1 µM, first compound 0.03 µM) 87.9% | viability, T/C (second compound 0.1 µM, first compound 0.0949 µM) 78.1% | viability, T/C (second compound 0.1 µM, first compound 0.3 µM) 52.5% | viability, T/C (second compound 0.316 µM, first compound 0.000949 µM) 88.2% | viability, T/C (second compound 0.316 µM, first compound 0.003 µM) 81.8% | viability, T/C (second compound 0.316 µM, first compound 0.00949 µM) 65.8% | viability, T/C (second compound 0.316 µM, first compound 0.03 µM) 96.3% | viability, T/C (second compound 0.316 µM, first compound 0.0949 µM) 108% | viability, T/C (second compound 0.316 µM, first compound 0.3 µM) 43.1% | viability, T/C (second compound 1 µM, first compound 0.000949 µM) 70.2% | viability, T/C (second compound 1 µM, first compound 0.003 µM) 53.1% | viability, T/C (second compound 1 µM, first compound 0.00949 µM) 47.1% | viability, T/C (second compound 1 µM, first compound 0.03 µM) 52% | viability, T/C (second compound 1 µM, first compound 0.0949 µM) 62.8% | viability, T/C (second compound 1 µM, first compound 0.3 µM) 25.4% | viability, T/C (second compound 3.16 µM, first compound 0.000949 µM) 48.9% | viability, T/C (second compound 3.16 µM, first compound 0.003 µM) 44.4% | viability, T/C (second compound 3.16 µM, first compound 0.00949 µM) 44.8% | viability, T/C (second compound 3.16 µM, first compound 0.03 µM) 44% | viability, T/C (second compound 3.16 µM, first compound 0.0949 µM) 39.5% | viability, T/C (second compound 3.16 µM, first compound 0.3 µM) 23.1% | viability, T/C (second compound 10 µM, first compound 0.000949 µM) 39.8% | viability, T/C (second compound 10 µM, first compound 0.003 µM) 39.5% | viability, T/C (second compound 10 µM, first compound 0.00949 µM) 42.7% | viability, T/C (second compound 10 µM, first compound 0.03 µM) 35.2% | viability, T/C (second compound 10 µM, first compound 0.0949 µM) 20.9% | viability, T/C (second compound 10 µM, first compound 0.3 µM) 18.3%

Nc1ccccc1NC(=O)c1ccc(CNC(=O)OCc2cccnc2)cc1 + CNC(=O)c1ccc(Nc2nc(OC3CCCC3)c3c(-c4ccc5nc(C)oc5c4)c[nH]c3n2)c(OC)c1
439 nM: IC50 (second compound 1 µM)
2230 nM: IC50 (second compound 0.0316 µM)
inactive: viability, T/C (second compound 0.0316 µM, first compound 0.0316 µM) 89.6% | viability, T/C (second compound 0.0316 µM, first compound 0.1 µM) 102% | viability, T/C (second compound 0.0316 µM, first compound 0.316 µM) 122% | viability, T/C (second compound 0.0316 µM, first compound 1 µM) 85.4% | viability, T/C (second compound 0.0316 µM, first compound 3.16 µM) 34.2% | viability, T/C (second compound 0.1 µM, first compound 0.0316 µM) 85.4% | viability, T/C (second compound 0.1 µM, first compound 0.1 µM) 106% | viability, T/C (second compound 0.1 µM, first compound 0.316 µM) 111% | viability, T/C (second compound 0.1 µM, first compound 1 µM) 116% | viability, T/C (second compound 0.1 µM, first compound 3.16 µM) 36.7% | viability, T/C (second compound 0.316 µM, first compound 0.0316 µM) 112% | viability, T/C (second compound 0.316 µM, first compound 0.1 µM) 83.5% | viability, T/C (second compound 0.316 µM, first compound 0.316 µM) 91.3% | viability, T/C (second compound 0.316 µM, first compound 1 µM) 101% | viability, T/C (second compound 0.316 µM, first compound 3.16 µM) 38.3% | viability, T/C (second compound 1 µM, first compound 0.0316 µM) 64.5% | viability, T/C (second compound 1 µM, first compound 0.1 µM) 62.7% | viability, T/C (second compound 1 µM, first compound 0.316 µM) 43% | viability, T/C (second compound 1 µM, first compound 1 µM) 48.7% | viability, T/C (second compound 1 µM, first compound 3.16 µM) 26.7% | viability, T/C (second compound 3.16 µM, first compound 0.0316 µM) 49.2% | viability, T/C (second compound 3.16 µM, first compound 0.1 µM) 43.8% | viability, T/C (second compound 3.16 µM, first compound 0.316 µM) 44.5% | viability, T/C (second compound 3.16 µM, first compound 1 µM) 33.1% | viability, T/C (second compound 3.16 µM, first compound 3.16 µM) 16.2% | viability, T/C (second compound 10 µM, first compound 0.0316 µM) 38.8% | viability, T/C (second compound 10 µM, first compound 0.1 µM) 26.8% | viability, T/C (second compound 10 µM, first compound 0.316 µM) 31.8% | viability, T/C (second compound 10 µM, first compound 1 µM) 29.2% | viability, T/C (second compound 10 µM, first compound 3.16 µM) 4.69%
2510 nM: IC50 (second compound 0.316 µM)
active: viability, T/C (second compound 0.0316 µM, first compound 10 µM) 5.25% | viability, T/C (second compound 0.1 µM, first compound 10 µM) 4.57% | viability, T/C (second compound 0.316 µM, first compound 10 µM) 3.65% | viability, T/C (second compound 1 µM, first compound 10 µM) 1.54% | viability, T/C (second compound 3.16 µM, first compound 10 µM) 0.26% | viability, T/C (second compound 10 µM, first compound 10 µM) 0.52%
2520 nM: IC50 (second compound 0.1 µM)
< 31.6 nM: IC50 (second compound 3.16 µM) | IC50 (second compound 10 µM)
